The record followed here is patent US10065945B2, “Isoquinoline derivatives as MGAT2 inhibitors” (Merck Sharp & Dohme Corp., priority 2014, dated 2018).

Structures can show the parent of a compound that is named as a salt.

The experiment deals with MGAT2 Human (Homo sapiens (Human), UniProt Q3SYC2). Nature of the experiment: MGAT2 Human IC50. The class given is biochemical.
MGAT2 Human, sequence (Q3SYC2 whole entry): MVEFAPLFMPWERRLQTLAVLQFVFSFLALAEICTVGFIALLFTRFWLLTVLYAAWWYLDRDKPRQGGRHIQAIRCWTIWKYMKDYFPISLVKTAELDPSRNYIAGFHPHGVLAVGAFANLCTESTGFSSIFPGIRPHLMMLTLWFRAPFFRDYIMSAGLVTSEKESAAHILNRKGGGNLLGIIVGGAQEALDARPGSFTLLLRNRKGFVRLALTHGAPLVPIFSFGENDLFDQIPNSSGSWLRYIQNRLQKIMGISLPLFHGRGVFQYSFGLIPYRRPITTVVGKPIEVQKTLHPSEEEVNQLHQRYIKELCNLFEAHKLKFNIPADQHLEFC
With `COCCOc1ccc([C@@H](C)N2CCc3ccc(S(=O)(=O)Nc4cc(C(C)(C)C)on4)cc3C2)cn1` [Example 31, 7-(N-(5-(tert-butyl)isoxazol-3-yl)sulfamoyl)-2-((R)-1-(6-(2-methoxyethoxy)pyridin-3-yl)ethyl)-1,2,3,4-tetrahydroisoquinolin-2-ium 2,2,2-trifluoroacetate], the IC50 is 17.2 nM.
Then `CC(C)c1nc(NS(=O)(=O)c2ccc3c(c2)CN([C@H](C)c2ccc(OCC(F)(F)F)nc2)CC3)no1` [Example 8], with 13 nM; and `CCOc1cnc([C@@H](C)N2CCc3ccc(S(=O)(=O)Nc4noc(C(C)(C)C)c4C)cc3C2)cn1` [Example 36, (R)—N-(5-(tert-butyl)-4-methylisoxazol-3-yl)-2-(1-(5-ethoxypyrazin-2-yl)ethyl)-1,2,3,4-tetrahydroisoquinoline-7-sulfonamide], with 3.5 nM; and `CCSc1ncc([C@@H](C)N2CCc3ccc(S(=O)(=O)Nc4cc(C(C)(C)C)on4)cc3C2)cn1` [Example 4, (R)—N-(5-(tert-butyl)isoxazol-3-yl)-2-(1-(2-(ethylthio)pyrimidin-5-yl)ethyl)-1,2,3,4-tetrahydroisoquinoline-7-sulfonamide], with 11 nM.
`COCCOc1ccc(C(=O)N2CCc3ccc(S(=O)(=O)Nc4noc(C(C)(C)C)c4C)cc3C2)cn1` [Example 30, N-(5-(tert-butyl)-4-methylisoxazol-3-yl)-2-(6-(2-methoxyethoxy)nicotinoyl)-1,2,3,4-tetrahydroisoquinoline-7-sulfonamide] registered an IC50 of 31 nM.
Then `C[C@H](c1ccc(OCC(F)(F)F)nc1)N1CCc2ccc(S(=O)(=O)Nc3noc(C(C)(C)C)c3Cl)cc2C1` [Example 13, (R)—N-(5-(tert-butyl)-4-chloroisoxazol-3-yl)-2-(1-(6-(2,2,2-trifluoroethoxy)pyridin-3-yl)ethyl)-1,2,3,4-tetrahydroisoquinoline-7-sulfonamide], with 16 nM; and `C[C@H](c1cc(F)cc(F)c1)N1CCc2ccc(S(=O)(=O)Nc3nc(C(=O)N4CCC4)no3)cc2C1` [Example 55], with 3.7 nM.
In turn, `CC(C)(C)c1onc(NS(=O)(=O)c2ccc3c(c2)CN(Cc2ccc(OCC(F)(F)F)nc2)CC3)c1F` [Example 16, N-(5-(tert-butyl)-4-fluoroisoxazol-3-yl)-2-((6-(2,2,2-trifluoroethoxy)pyridin-3-yl)methyl)-1,2,3,4-tetrahydroisoquinoline-7-sulfonamide] gave an IC50 of 16 nM.
To `CCCc1cnc(NS(=O)(=O)c2ccc3c(c2)CN([C@H](C)c2ccc(OCC(F)(F)F)nc2)CC3)cn1` [Example 45, 7-(N-(5-propylpyrazin-2-yl)sulfamoyl)-2-((R)-1-(6-(2,2,2-trifluoroethoxy)pyridin-3-yl)ethyl)-1,2,3,4-tetrahydroisoquinolin-2-ium 2,2,2-trifluoroacetate] belongs 7.3 nM; to `C[C@H](c1ccc(OCC2CC(F)(F)C2)nc1)N1CCc2ccc(S(=O)(=O)Nc3noc(C4CC4)n3)cc2C1` [Example 26, (R)-5-cyclopropyl-3-(2-(1-(6-((3,3-difluorocyclobutyl)methoxy)pyridin-3-yl)ethyl)-1,2,3,4-tetrahydroisoquinoline-7-sulfonamido)-1,2,4-oxadiazol-2-ium 2,2,2-trifluoroacetate], 20 nM.
To `Cc1onc(NS(=O)(=O)c2ccc3c(c2)CN([C@H](C)c2ccc(OCC(F)(F)F)nc2)CC3)c1-c1cnn(C)c1` [Example 17, (R)—N-(5-methyl-4-(1-methyl-1H-pyrazol-4-yl)isoxazol-3-yl)-2-(1-(6-(2,2,2-trifluoroethoxy)pyridin-3-yl)ethyl)-1,2,3,4-tetrahydroisoquinoline-7-sulfonamide] belongs 24 nM.
Then `CCc1noc(NS(=O)(=O)c2ccc3c(c2)CN([C@H](C)c2ccc(OCC(F)(F)F)nc2)CC3)n1` [Example 7], with 8.1 nM; and `CC(C)Nc1cnc(NS(=O)(=O)c2ccc3c(c2)CN([C@H](C)c2ccc(OCC(F)(F)F)nc2)CC3)cn1` [Example 47, 7-(N-(5-(isopropylamino)pyrazin-2-yl)sulfamoyl)-2-((R)-1-(6-(2,2,2-trifluoroethoxy)pyridin-3-yl)ethyl)-1,2,3,4-tetrahydroisoquinolin-2-ium 2,2,2-trifluoroacetate], with 13.9 nM.
As for `Cc1c(NS(=O)(=O)c2ccc3c(c2)CN([C@H](C)c2ccc(OCC(F)(F)F)cc2)CC3)noc1C(C)(C)C` [Example 29, 7-(N-(5-(tert-butyl)-4-methylisoxazol-3-yl)sulfamoyl)-2-((R)-1-(4-(2,2,2-trifluoroethoxy)phenyl)ethyl)-1,2,3,4-tetrahydroisoquinolin-2-ium 2,2,2-trifluoroacetate], the IC50 worked out at 9.5 nM.
`CCc1ccc(CN2CCc3ccc(S(=O)(=O)Nc4noc(C(C)(C)C)c4CC)cc3C2)cn1` [Example 40, N-(5-(tert-butyl)-4-ethylisoxazol-3-yl)-2-((6-ethylpyridin-3-yl)methyl)-1,2,3,4-tetrahydroisoquinoline-7-sulfonamide] showed an IC50 of 15 nM.
On to `CNC(=O)c1c(NS(=O)(=O)c2ccc3c(c2)CN([C@H](C)c2cc(F)cc(F)c2)CC3)noc1C(C)(C)C` [Example 34, (R)-5-(tert-butyl)-3-(2-(1-(3,5-difluorophenyl)ethyl)-1,2,3,4-tetrahydroisoquinoline-7-sulfonamido)-N-methylisoxazole-4-carboxamide], for which the IC50 was found to be 6.2 nM.
In turn, `CC(C)(C)c1onc(NS(=O)(=O)c2cnc3c(c2)CN(Cc2cc(F)cc(F)c2)CC3)c1Br` [Example 44, N-(4-bromo-5-(tert-butyl)isoxazol-3-yl)-6-(3,5-difluorobenzyl)-5,6,7,8-tetrahydro-1,6-naphthyridine-3-sulfonamide Trifluoroacetate] had an IC50 of 118 nM.
To `C[C@H](c1cnc(OCC(F)(F)F)nc1)N1CCc2ccc(S(=O)(=O)Nc3noc(C(C)(C)C)c3Br)cc2C1` [Example 10, (R)—N-(4-bromo-5-(tert-butyl)isoxazol-3-yl)-2-(1-(2-(2,2,2-trifluoroethoxy)pyrimidin-5-yl)ethyl)-1,2,3,4-tetrahydroisoquinoline-7-sulfonamide] belongs 17 nM.
To `Cc1c(NS(=O)(=O)c2ccc3c(c2)CN([C@H](C)c2cnc(OCC(F)(F)F)cn2)CC3)noc1C(C)(C)C` [Example 14, (R)—N-(5-(tert-butyl)-4-methylisoxazol-3-yl)-2-(1-(5-(2,2,2-trifluoroethoxy)pyrazin-2-yl)ethyl)-1,2,3,4-tetrahydroisoquinoline-7-sulfonamide] belongs 3.1 nM; to `Cc1c(NS(=O)(=O)c2ccc3c(c2)CN([C@H](C)c2ccc(OCC(F)(F)F)nc2)CC3)noc1C(C)(C)C` [Example 5, (R)—N-(5-(tert-butyl)-4-methylisoxazol-3-yl)-2-(1-(6-(2,2,2-trifluoroethoxy)pyridin-3-yl)ethyl)-1,2,3,4-tetrahydroisoquinoline-7-sulfonamide], 4.5 nM.
As to `CCOc1cnc([C@@H](C)N2CCc3ccc(S(=O)(=O)Nc4noc(C(C)(C)C)c4Cl)cc3C2)cn1` [Example 35, (R)—N-(5-(tert-Butyl)-4-chloroisoxazol-3-yl)-2-(1-(5-ethoxypyrazin-2-yl)ethyl)-1,2,3,4-tetrahydroisoquinoline-7-sulfonamide], half-maximal inhibition (IC50) required 8.3 nM.
Consider `C[C@H](c1cnc(OCC(F)(F)F)nc1)N1CCc2ccc(S(=O)(=O)Nc3cc(C(C)(C)C)on3)cc2C1` [Example 12, (R)—N-(5-(tert-butyl)isoxazol-3-yl)-2-(1-(2-(2,2,2-trifluoroethoxy)pyrimidin-5-yl)ethyl)-1,2,3,4-tetrahydroisoquinoline-7-sulfonamide], for which half-maximal inhibition (IC50) was put at 14 nM.
To `C[C@H](c1ccc(OCC(F)(F)F)nc1)N1CCc2ccc(S(=O)(=O)Nc3noc(-c4ccccc4)n3)cc2C1` [Example 6] belongs 9.2 nM; to `C[C@H](c1cnc(OCC(F)F)cn1)N1CCc2ccc(S(=O)(=O)Nc3noc(C4CC4)n3)cc2C1` [Example 24, (R)-5-cyclopropyl-3-(2-(1-(5-(2,2-difluoroethoxy)pyrazin-2-yl)ethyl)-1,2,3,4-tetrahydroisoquinoline-7-sulfonamido)-1,2,4-oxadiazol-2-ium 2,2,2-trifluoroacetate], 19.7 nM; to `CCCc1c(NS(=O)(=O)c2ccc3c(c2)CN(Cc2ccc(CC)nc2)CC3)noc1C(C)(C)C` [Example 39, N-(5-(tert-butyl)-4-propylisoxazol-3-yl)-2-((6-ethylpyridin-3-yl)methyl)-1,2,3,4-tetrahydroisoquinoline-7-sulfonamide], 11 nM.
Regarding `Cc1c(NS(=O)(=O)c2ccc3c(c2)CN(C(=O)c2ccc(OCC(F)(F)F)nc2)CC3)noc1C(C)(C)C` [Example 27, N-(5-(tert-butyl)-4-methylisoxazol-3-yl)-2-(6-(2,2,2-trifluoroethoxy)nicotinoyl)-1,2,3,4-tetrahydroisoquinoline-7-sulfonamide], the IC50 turned out to be 41 nM.

The term IC50 denotes the concentration at which inhibition is half-maximal. A high value points to weaker potency.
